Several values for one entry are separate records, joined by “and”; a condition that tells them apart may be missing. Equal values may be shown once. Inconclusive results and toxic doses are left out.
Test system: CD2F1 mice, L1210 leukemia ip, survival T/C
Assay: NCI In Vivo Anticancer Drug Screen. Data for tumor model L1210 Leukemia (intraperitoneal) in CD2F1 (CDF1) mice
Conditions: higher = longer survival
Method in brief: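 Read-out first: treated-group measurement over vehicle-control measurement, expressed as a ratio. Animals bore a transplanted tumor line and were dosed with compound or vehicle.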

[1] = endpoint: mean survival time, dose: 100.0 mg/kg/injection, schedule: Q04DX002 (ip), vehicle: saline with Tween-80
[2] = endpoint: mean survival time, dose: 200.0 mg/kg/injection, schedule: Q04DX002 (ip), vehicle: saline with Tween-80
[3] = endpoint: mean survival time, dose: 400.0 mg/kg/injection, schedule: Q04DX002 (ip), vehicle: saline with Tween-80
[4] = endpoint: mean survival time, dose: 100.0 mg/kg/injection, schedule: Q01DX009 (ip), vehicle: saline with Tween-80
[5] = endpoint: mean survival time, dose: 200.0 mg/kg/injection, schedule: Q01DX009 (ip), vehicle: saline with Tween-80
[6] = endpoint: mean survival time, dose: 400.0 mg/kg/injection, schedule: Q01DX009 (ip), vehicle: saline with Tween-80
[7] = endpoint: mean survival time, dose: 100.0 mg/kg/injection, schedule: Q01DX001 (ip), vehicle: Klucel (hydroxypropylcellulose) (HPC)
[8] = endpoint: mean survival time, dose: 200.0 mg/kg/injection, schedule: Q01DX001 (ip), vehicle: Klucel (hydroxypropylcellulose) (HPC)
[9] = endpoint: mean survival time, dose: 400.0 mg/kg/injection, schedule: Q01DX001 (ip), vehicle: Klucel (hydroxypropylcellulose) (HPC)
[10] = endpoint: mean survival time, dose: 100.0 mg/kg/injection, schedule: Q01DX001 (ip), vehicle: saline
[11] = endpoint: mean survival time, dose: 200.0 mg/kg/injection, schedule: Q01DX001 (ip), vehicle: saline
[12] = endpoint: mean survival time, dose: 400.0 mg/kg/injection, schedule: Q01DX001 (ip), vehicle: saline
[13] = endpoint: mean survival time, dose: 100.0 mg/kg/injection, schedule: Q04DX003 (ip), vehicle: saline with Tween-80
[14] = endpoint: mean survival time, dose: 200.0 mg/kg/injection, schedule: Q04DX003 (ip), vehicle: saline with Tween-80
[15] = endpoint: mean survival time, dose: 400.0 mg/kg/injection, schedule: Q04DX003 (ip), vehicle: saline with Tween-80
[16] = endpoint: mean survival time, dose: 25.0 mg/kg/injection, schedule: Q01DX009 (ip), vehicle: saline with Tween-80
[17] = endpoint: mean survival time, dose: 50.0 mg/kg/injection, schedule: Q01DX009 (ip), vehicle: saline with Tween-80

O=S1CCCO1 (configuration not stated)
T/C (endpoint: mean survival time, dose: 18.8 mg/kg/injection, schedule: Q04DX003 (ip), vehicle: saline): 101 % of control

S=C(N/N=C/c1ccccn1)Nc1ccccn1
T/C [1]: 103 % of control | T/C [2]: 114 % of control | T/C [3]: 91 % of control

BrC(Br)(Br)c1ccc2ccccc2n1
T/C [4]: 96 % of control | T/C [5]: 94 % of control | T/C [6]: 102 % of control

CCCCCCCCCCCCCOc1ccc2ccccc2c1
T/C [7]: 107 % of control | T/C [8]: 96 % of control | T/C [9]: 87 % of control

CCC(=O)c1cc2c(cc1CC)C(C)(C)CCC2(C)C
T/C (endpoint: mean survival time, dose: 50.0 mg/kg/injection, schedule: Q01DX001 (ip), vehicle: saline): 93 % of control | T/C [10]: 93 % of control | T/C (endpoint: mean survival time, dose: 100.0 mg/kg/injection, schedule: Q04DX003 (ip), vehicle: saline): 101 % of control | T/C [11]: 93 % of control | T/C (endpoint: mean survival time, dose: 200.0 mg/kg/injection, schedule: Q04DX003 (ip), vehicle: saline): 97 % of control | T/C [12]: 91 % of control | T/C (endpoint: mean survival time, dose: 400.0 mg/kg/injection, schedule: Q04DX003 (ip), vehicle: saline): 90 % of control

N/C(=N\N=C(c1ccccc1)c1ccccc1)N[N+](=O)[O-]
T/C [13]: 97 % of control | T/C [14]: 100 % of control | T/C [15]: 103 % of control

CCNC(=O)C(C)Br (configuration not stated)
T/C [10]: 97 % of control | T/C [11]: 106 % of control

O=C1OC2CC1CCC2Br (configuration not stated)
T/C [13]: 94 % of control | T/C [14]: 94 % of control | T/C [15]: 97 % of control

CN(C)Cc1cc(C(C)(C)C)cc(CN(C)C)c1O
T/C (endpoint: mean survival time, dose: 2.5 mg/kg/injection, schedule: Q01DX009 (ip), vehicle: saline with Tween-80): 98 % of control | T/C (endpoint: mean survival time, dose: 5.0 mg/kg/injection, schedule: Q01DX009 (ip), vehicle: saline with Tween-80): 96 % of control | T/C (endpoint: mean survival time, dose: 10.0 mg/kg/injection, schedule: Q01DX009 (ip), vehicle: saline with Tween-80): 95 % of control and 100 % of control

CC(C)OC(CCCl)c1ccc(Cl)cc1 (configuration not stated)
T/C [4]: 104 % of control | T/C [13]: 94 % of control | T/C [5]: 96 % of control | T/C [14]: 96 % of control | T/C [6]: 89 % of control | T/C [15]: 97 % of control

CCCN(CCC)S(=O)(=O)c1ccc(NC(=O)OC2CCCCCC2)cc1
T/C [10]: 104 % of control | T/C [11]: 108 % of control | T/C [12]: 104 % of control

O=c1cc(C(Br)(Br)Br)[nH]c2ccccc12
T/C [13]: 99 % of control | T/C [14]: 97 % of control | T/C [15]: 99 % of control

O=C(CCl)Nc1ccccn1
T/C (endpoint: mean survival time, dose: 100.0 mg/kg/injection, schedule: Q01DX009 (ip), vehicle: saline): 96 % of control | T/C (endpoint: mean survival time, dose: 200.0 mg/kg/injection, schedule: Q01DX009 (ip), vehicle: saline): 102 % of control | T/C (endpoint: mean survival time, dose: 400.0 mg/kg/injection, schedule: Q01DX009 (ip), vehicle: saline): 97 % of control

CCOC(=O)c1cc(=O)[nH]c2ccc(OC)cc12
T/C [4]: 98 % of control | T/C [5]: 104 % of control | T/C [6]: 104 % of control

COc1cc2nc(C(O)C(O)c3nc4cc(OC)c(OC)cc4[nH]3)[nH]c2cc1OC (configuration not stated)
T/C [13]: 101 % of control | T/C [14]: 98 % of control

c1cc(-n2nnc3cnccc32)ccn1
T/C (endpoint: mean survival time, dose: 25.0 mg/kg/injection, schedule: Q04DX003 (ip), vehicle: saline): 102 % of control | T/C (endpoint: mean survival time, dose: 50.0 mg/kg/injection, schedule: Q04DX003 (ip), vehicle: saline): 104 % of control

NC1CC(N)C(O)C(O)C1O (configuration not stated)
T/C [10]: 95 % of control | T/C [1]: 103 % of control | T/C [11]: 100 % of control | T/C [2]: 103 % of control | T/C [12]: 94 % of control | T/C [3]: 95 % of control

O=C1OCC(Cl)=C1Cl
T/C (endpoint: mean survival time, dose: 6.25 mg/kg/injection, schedule: Q01DX009 (ip), vehicle: saline with Tween-80): 96 % of control | T/C (endpoint: mean survival time, dose: 12.5 mg/kg/injection, schedule: Q01DX009 (ip), vehicle: saline with Tween-80): 94 % of control | T/C [16]: 98 % of control

CC(C)(C)OC(=O)Cc1ncnc2c1ncn2C1OC(CO)C(O)C1O (configuration not stated)
T/C (endpoint: mean survival time, dose: 12.5 mg/kg/injection, schedule: Q01DX005 (ip), vehicle: distilled water + Tween-80): 103 % of control | T/C (endpoint: mean survival time, dose: 25.0 mg/kg/injection, schedule: Q01DX005 (ip), vehicle: distilled water + Tween-80): 102 % of control | T/C (endpoint: mean survival time, dose: 50.0 mg/kg/injection, schedule: Q01DX005 (ip), vehicle: distilled water + Tween-80): 96 % of control | T/C (endpoint: mean survival time, dose: 100.0 mg/kg/injection, schedule: Q01DX005 (ip), vehicle: distilled water + Tween-80): 97 % of control | T/C (endpoint: mean survival time, dose: 200.0 mg/kg/injection, schedule: Q01DX005 (ip), vehicle: distilled water + Tween-80): 102 % of control

ClCCOCC1CO1 (configuration not stated)
T/C (endpoint: mean survival time, dose: 150.0 mg/kg/injection, schedule: Q04DX003 (ip), vehicle: saline): 101 % of control | T/C (endpoint: mean survival time, dose: 225.0 mg/kg/injection, schedule: Q04DX003 (ip), vehicle: saline): 104 % of control | T/C (endpoint: mean survival time, dose: 335.0 mg/kg/injection, schedule: Q04DX003 (ip), vehicle: saline): 96 % of control

CC1(C)COC(CCc2ccccc2)=N1
T/C [1]: 108 % of control | T/C [13]: 104 % of control | T/C [2]: 101 % of control | T/C [14]: 93 % of control | T/C [3]: 101 % of control | T/C [15]: 86 % of control

O=C(C[n+]1ccccc1)N/N=C/c1c(O)ccc2ccccc12
T/C [16]: 100 % of control | T/C [17]: 99 % of control | T/C [4]: 99 % of control

O=NN(CCCl)C(=O)NCc1ccc[n+]([O-])c1
T/C (endpoint: mean survival time, dose: 6.25 mg/kg/injection, schedule: Q01DX001 (ip), vehicle: water): 152 % of control and 167 % of control | T/C (endpoint: mean survival time, dose: 12.5 mg/kg/injection, schedule: Q01DX001 (ip), vehicle: water): 274 % of control and 290 % of control | T/C (endpoint: mean survival time, dose: 25.0 mg/kg/injection, schedule: Q01DX001 (ip), vehicle: water): 309 % of control and 324 % of control

CN(C)C(=O)SC1=C(c2c(Cl)cccc2Cl)C(=O)c2ccccc21
T/C (endpoint: median survival time, dose: 25.0 mg/kg/injection, schedule: Q01DX009 (ip), vehicle: Klucel (hydroxypropylcellulose) (HPC)): 112 % of control | T/C (endpoint: median survival time, dose: 50.0 mg/kg/injection, schedule: Q01DX009 (ip), vehicle: Klucel (hydroxypropylcellulose) (HPC)): 112 % of control | T/C (endpoint: median survival time, dose: 100.0 mg/kg/injection, schedule: Q01DX009 (ip), vehicle: Klucel (hydroxypropylcellulose) (HPC)): 104 % of control | T/C (endpoint: median survival time, dose: 200.0 mg/kg/injection, schedule: Q01DX009 (ip), vehicle: Klucel (hydroxypropylcellulose) (HPC)): 101 % of control | T/C (endpoint: median survival time, dose: 400.0 mg/kg/injection, schedule: Q01DX009 (ip), vehicle: Klucel (hydroxypropylcellulose) (HPC)): 108 % of control

CCOC/C=C\C1CCCC1
T/C [17]: 94 % of control | T/C [4]: 100 % of control | T/C [5]: 102 % of control

O=c1c2ccccc2[nH]c(=S)n1C1CCCC1
T/C [1]: 96 % of control | T/C [2]: 108 % of control | T/C [3]: 100 % of control

CNNC1CCC2C3CCc4cc(O)ccc4C3CCC12C (configuration not stated)
T/C (endpoint: mean survival time, dose: 12.5 mg/kg/injection, schedule: Q01DX009 (ip), vehicle: Klucel (hydroxypropylcellulose) (HPC)): 91 % of control | T/C (endpoint: mean survival time, dose: 25.0 mg/kg/injection, schedule: Q01DX009 (ip), vehicle: Klucel (hydroxypropylcellulose) (HPC)): 94 % of control | T/C (endpoint: mean survival time, dose: 50.0 mg/kg/injection, schedule: Q01DX009 (ip), vehicle: Klucel (hydroxypropylcellulose) (HPC)): 91 % of control

O=C(COc1ccccc1)Nc1ccc(Br)cc1
T/C [7]: 97 % of control | T/C [8]: 105 % of control | T/C [9]: 105 % of control

CC(C)N(CCN(C)C(=O)C(O)(c1ccccc1)c1ccccc1)C(C)C
T/C (endpoint: mean survival time, dose: 50.0 mg/kg/injection, schedule: Q04DX003 (ip), vehicle: saline with Tween-80): 101 % of control | T/C [13]: 93 % of control and 98 % of control | T/C [14]: 104 % of control

O=C(Cc1ccccc1[N+](=O)[O-])NCC1(c2cccc3c2OCO3)OCCO1
T/C (endpoint: mean survival time, dose: 75.0 mg/kg/injection, schedule: Q01DX001 (ip), vehicle: other): 96 % of control | T/C (endpoint: mean survival time, dose: 150.0 mg/kg/injection, schedule: Q01DX001 (ip), vehicle: other): 91 % of control | T/C (endpoint: mean survival time, dose: 300.0 mg/kg/injection, schedule: Q01DX001 (ip), vehicle: other): 96 % of control
